{
  "source": "patent US12234507B2",
  "about": "“Compositions and methods for targeted masking of autofluorescence” (10x Genomics, Inc., priority 2022, dated 2025)",
  "key": {"[1]": {"test_system": "fresh frozen (FrF) mouse brain tissues (dentate gyrus, cortex)", "experiment": "Targeted masking of autofluorescence, in situ imaging of fresh frozen mouse brain tissue sections", "method": "(§1) Formalin-fixed paraffin embedded (FFPE) human brain tissues and fresh frozen (FrF) mouse brain tissues were obtained for this example. The samples were sectioned to 10 μm thickness and transferred to Superfrost® Plus slides. The FFPE human brain tissues were treated multiple times with Histo-Clear® and citrate buffer to remove the embedded paraffin. The FrF mouse brain samples were fixed using 3.7% formaldehyde for 5 minutes. The slides were then incubated with nucleic acid probes targeting genes of interest. The nucleic acid probes were allowed to hybridize overnight in hybridization buffer at 37° C. The next day, the samples were washed using wash buffers to remove excess or unbound probes. The probes were then ligated in the presence of ligase, RNAase inhibitor and ligation buffer for 2 hours. Subsequently, the ligation products were amplified overnight using polymerases and amplification buffers. The samples were then stained using fluorescently labelled probes. Finally, the quenching agent compound 1A was dissolved in DMF (at 18 mM), diluted with 70% ethanol to provide solutions of compound 1A at concentrations of 3.6 mM, 1.8 mM, and 0.9 mM. These solutions were applied to the samples prior to imaging. Once imaged, the fluorescently labelled probes were stripped using a denaturing agent and contacted with additional detectable probes before the next imaging round. In this manner, multiple rounds of stripping, re-probing, and imaging of signals associated with the fluorescently labelled probes, were performed without any additional quenching steps.\n(§2) To improve the binding of compound 1A to tissue moieties responsible for autofluorescence, the FrF mouse brain tissues were treated with dithiothreitol (DTT, 50 mM) and 2% TEA for 10 minutes before quenching with compound 1A. DTT reduces disulfide bridges in the tissues thereby increasing the thiol content for improved binding of compound 1A. Alternatively, the tissues were treated with a combination of 2,5-dioxopyrrolidin-1-yl 3-oxo-1-(pyridin-2-yldisulfaneyl)-7,10,13,16-tetraoxa-4-azanonadecan-19-oate (PEG4-SPDP), a derivative of succinimidyl 3-(2-pyridyldithio) propionate (SPDP) comprising an internal tetraoligoethylene linker, and DTT, to convert amines to thiols and reduce any disulfide bridges to increase thiol content. For the reduction only treatment, the tissues were treated with DTT (50 mM for 10 minutes). […] FIGS. 3A and 3C depict the fluorescence for the dentate gyrus and cortex portions prior to quenching, in which punctuate fluorescence signals were associated with rolling circle amplification products, and amorphous background fluorescence was detected."}, "FFPE human brain tissues [2]": {"test_system": "FFPE human brain tissues", "experiment": "Targeted masking of autofluorescence, in situ imaging of FFPE human brain tissue", "method": "as §1\nas §2, with “minutes). For the conversion of amines to thiols and subsequent reduction, the tissues were treated first with PEG4-SPDP (10 mM) for 10 minutes, followed by treatment with DTT (50 mM) and compound 1A (0.9 mM). PEG4-SPDP is a multifunctional crosslinker for protein conjugation via amine-to-amine or amine-to-sulfhydryl crosslinks that contain a 4-unit polyethylene glycol (PEG) group and a reducible (cleavable) disulfide bond. The tissues were then washed prior to or after staining. […] Results were compared to the tissues incubated with a native thiol targeting group (control group).” for “minutes).”\nFurther studies were conducted on FFPE human brain tissue that were enriched for binding moieties in the tissue via treatment with DTT or with DTT and PEG4-SPDP. FIG. 5 depicts the signal-to-noise ratio increased post-quenching with DTT/Compound 1A and PEG4-SPDP-DTT/Compound 1A, and was maintained after stripping with DMSO treatment and rehybridization of fluorescent probes."}, "FFPE human brain tissues [3]": {"test_system": "FFPE human brain tissues", "experiment": "Masking autofluorescence of FFPE human brain tissue with quencher analogues", "conditions": "for background signal compared to unquenched tissues: quencher 1 mM 30 min, 50 mM DTT, all four channels 488, 532, 590, 647 nm (FIGS. 7A-7D); for detected object local mean signal-to-noise ratio: quencher 1 mM, 590 nm and 647 nm (FIGS. 8B, 8C)", "method": "Formalin-fixed paraffin embedded (FFPE) human brain tissues were treated using the protocol described in Example 1 and further treated using 50 mM DTT for 30 minutes. Next, the tissues were incubated with the quenchers (1 mM) for 30 minutes prior to staining. Staining was performed using nucleic acid probes targeting an anchor sequence which is present within all of the RCPs and targeting epithelial genes-rp1p0, malat1, and actb. The tissues were stained with the quencher compounds 1A, 2A, 1B, 3B, a combination of quenchers 1A and 3B, or a commercial quencher (Table 1, for comparison)."}, "[4]": {"test_system": "FFPE human tonsil tissues", "experiment": "Autofluorescence masking over multiple cycles in FFPE human tonsil tissue", "method": "Formalin-fixed paraffin embedded (FFPE) human tonsil and liver tissues were obtained for this example. The samples were sectioned to 5 μm thickness and transferred to Superfrost® Plus slides. The samples were treated multiple times with Histo-Clear® and citrate buffer to remove the embedded paraffin and incubated overnight with nucleic acid probes targeting epithelial genes. The next day, the samples were washed with wash buffers to remove excess or unbound probes. The probes were then ligated in the presence of ligase, RNAase inhibitor and ligation buffer for 2 hours. Subsequently, the ligation products were amplified overnight using polymerases and amplification buffers. The samples were then stained using fluorescently labelled probes. Prior to staining, the samples with treated with DTT (1 mM) for 10 minutes and quenchers with different concentrations of the compound 1A (0.1 mM, 0.5 mM, and 0.8 mM). Images of control samples without compound 1A treatment were obtained for comparison. Samples were imaged in two field of views (FOVs) to control for photo bleaching. Once imaged, the fluorescently labelled probes were stripped using a denaturing agent and contacted with additional detectable probes before the next imaging round. In this manner, multiple rounds of stripping, re-probing, and imaging of signals associated with the fluorescently labelled probes, were performed without any additional quenching steps."}, "[5]": {"conditions": "stripping of fluorescently labeled probes and rehybridization"}, "[6]": {"conditions": "PEG4-SPDP-DTT/Compound 1A (FIG. 5)"}},
  "data": [
    {"smiles": "COc1cc(/N=N/c2ccc([N+](=O)[O-])cc2)c(OC)cc1/N=N/c1ccc(N(C)CCCN2C(=O)C=CC2=O)cc1", "note": "[Compound 1A]", "values": [
      {"measurement": "staining of the tissues with the targeting chemistry", "setting": "[1]; FrF mouse brain, DTT or PEG4-SPDP/DTT enrichment, compared to native thiol control group", "value": "efficiently stain"},
      {"measurement": "background signal", "setting": "[1]; after stripping with DMSO, treatment with compound 1A and rehybridization with additional probes", "value": "significantly reduced"},
      {"measurement": "background in dentate gyrus (DG) and cortex samples", "setting": "[1]; mouse brain, quenched vs prior to quenching (FIGS. 3A-3D)", "value": "efficiently reduced"},
      {"measurement": "autofluorescence quenching effect after stripping", "setting": "[1]; [5]", "value": "retained"},
      {"measurement": "background in human brain tissues", "setting": "FFPE human brain tissues [2]", "value": "efficiently reduced"},
      {"measurement": "signal to background ratio after 5 cycles of stripping and rehybridizing", "setting": "FFPE human brain tissues [2]; 488 nm, 590 nm, 532 nm and 647 nm, single quenching application (FIGS. 6A-6D)", "value": "maintained"},
      {"measurement": "signal-to-noise ratio after stripping with DMSO and rehybridization of fluorescent probes", "setting": "FFPE human brain tissues [2]; DTT/Compound 1A (FIG. 5)", "value": "maintained"},
      {"measurement": "signal-to-noise ratio post-quenching", "setting": "FFPE human brain tissues [2]; DTT/Compound 1A (FIG. 5)", "value": "increased"},
      {"measurement": "signal-to-noise ratio after stripping with DMSO and rehybridization of fluorescent probes", "setting": "FFPE human brain tissues [2]; [6]", "value": "maintained"},
      {"measurement": "signal-to-noise ratio post-quenching", "setting": "FFPE human brain tissues [2]; [6]", "value": "increased"},
      {"measurement": "retention of quencher on tissues through multiple detection cycles", "setting": "FFPE human brain tissues [2]; covalently bound, no repeated quenching steps", "value": "retained"},
      {"measurement": "autofluorescence quenching effect after stripping", "setting": "FFPE human brain tissues [2]; [5]", "value": "retained"},
      {"measurement": "background signal compared to unquenched tissues", "setting": "FFPE human brain tissues [3]", "value": "significant reduction"},
      {"measurement": "detected object local mean signal-to-noise ratio", "setting": "FFPE human brain tissues [3]", "value": "improved"},
      {"measurement": "detected object density", "setting": "[4]; 0.1, 0.5 and 0.8 mM, 488 nm (FIGS. 10A-10C)", "value": "increase"},
      {"measurement": "detected object local signal-to-noise ratio", "setting": "[4]; 0.1, 0.5 and 0.8 mM, 488 nm (FIGS. 11A-11C)", "value": "Increased"},
      {"measurement": "background signal compared to unquenched tonsil tissues", "setting": "[4]; 0.1, 0.5 and 0.8 mM, 488 nm, cycles 5-7 vs 1-3, multiple cycles of stripping and reprobing (FIGS. 9A-9C)", "value": "Significant reduction"},
      {"measurement": "background noise across all four wavelengths measured", "setting": "[4]; 488, 532, 590, 647 nm (data for additional wavelengths not shown)", "value": "reduced background noise was maintained"},
      {"measurement": "signal intensity", "setting": "[4]; 488 nm, after quenching", "value": "reduced"},
      {"measurement": "detected objected signal intensity above local background", "setting": "[4]; quenched tissue, 488 nm, exposure time increased from 10 ms to 30 ms (FIG. 12)", "value": "significantly improved"}
    ]},
    {"smiles": "COc1cc(/N=N/c2ccc([N+](=O)[O-])cc2)c(OC)cc1/N=N/c1ccc(N(C)CCCC(=O)ON2C(=O)CCC2=O)cc1", "note": "[Compound 1B]", "values": [
      {"measurement": "background signal compared to unquenched tissues", "setting": "FFPE human brain tissues [3]", "value": "significant reduction"},
      {"measurement": "detected object local mean signal-to-noise ratio", "setting": "FFPE human brain tissues [3]", "value": "improved"}
    ]},
    {"smiles": "CCN(CC)c1ccc2nc3ccc(/N=N/c4ccc(N(C)CCCC(=O)ON5C(=O)CCC5=O)cc4)cc3[n+](-c3ccccc3)c2c1", "note": "[Compound 3B]", "values": [
      {"measurement": "background signal compared to unquenched tissues", "setting": "FFPE human brain tissues [3]", "value": "significant reduction"}
    ]},
    {"smiles": "COc1cc(/N=N/c2c(Cl)cc([N+](=O)[O-])cc2Cl)c(OC)cc1/N=N/c1ccc(N(C)CCCN2C(=O)C=CC2=O)cc1", "note": "[Compound 2A]", "values": [
      {"measurement": "background signal compared to unquenched tissues", "setting": "FFPE human brain tissues [3]", "value": "significant reduction"},
      {"measurement": "detected object local mean signal-to-noise ratio", "setting": "FFPE human brain tissues [3]", "value": "improved"}
    ]}
  ]
}
